One series has as its system p53DD R2F fibroblasts. The series can be described thus: SA-β-Gal staining, p53DD R2F fibroblasts. Format: cell-based, human. As to conditions: 40 μM, 1 week. On the procedure:
FIG. 12a: Immunoblot analysis of p53DD and cdk4^R24C expression. Cells were collected for protein analysis by western blot using 30 μg total protein and probed for total p53 and cdk4. Lanes 1, 2, 3 and 4 contain protein samples from R2F, R2F (p53DD), R2F (cdk4^R24C) and R2F (p53DD/cdk4^R24C) fibroblasts, respective. β-actin was used as a loading control. FIG. 12b: Contribution of p53 and pRb pathways to T-oligo-induced SA-β-Gal activity. R2F fibroblasts and derived transductants were treated with diluent or 40 μM T-oligo for one week and then assayed for SA-β-Gal activity. FIG. 12c: Quantitative analysis of SA-β-Gal positive cells. Cells expressing SA-β-Gal activity were counted and presented as percentage of total cells in the cultures. Averages and standard deviations were calculated from 3 representative fields from each of 3 independent experiments.
R2F newborn dermal fibroblasts and derived p53DD, […] and p53DD/cdk4^R24C transductants (a generous gift from Dr. James G. Rheinwald of Harvard Medical School) lack a functional p53 pathway, pRb pathway, and both pathways respectively.
Cells were treated once with diluent alone, 40 μM T-oligo or 40 μM complementary oligo for 1 week without re-feeding. […]
Cells were treated with either diluent or 40 μM T-oligo for 1 week and then assessed for SA-β-Gal activity. […]

Series [1] deals with pRb phosphorylation on serine 780, serine 795 and serine 807/811. Nature of the series: Western blot of pRb phosphorylation in HT-1080 cells. Format: cell-based, human. How it is done: FIG. 13a: Exposure to T-oligo increases SA-β-Gal activity. HT-1080 cells were treated for 4 days with diluent alone or 40 μM T-oligo or the complementary control oligo, then stained and assayed for SA-β-Gal activity. FIG. 13b: Quantitative analysis of SA-β-Gal positive cells. Cells expressing SA-β-Gal activity were counted and presented as percentage of total cells in the cultures. Averages and standard deviations were calculated from 3 representative fields from each of 3 independent experiments. FIG. 13c: Effect of T-oligo on cell proliferation. Cells were treated for 4 days as in FIG. 12 and assayed for DNA synthesis by BrdU incorporation. FIG. 13d: Quantitative analysis of BrdU incorporation. Dark black nuclei indicate BrdU incorporated into nuclear DNA. BrdU positive cells were calculated and presented as percentage of total cells in the cultures. Averages and standard deviations were calculated from 3 representative fields from each of 3 independent experiments. FIG. 13e: Effect of T-oligo on pRb phosphorylation. Cells were treated as in FIG. 13a and were then collected for protein analysis by western blot using 30 μg total protein and probed for pRb-ser780*, ser795* and ser807/811* (pRb phosphorylated at serine 780, serine 795 and serine 807/811 respectively). […]
On the technique in general: A western blot detects proteins with antibodies after separation by electrophoresis.

{P} = phosphate

Substance “pGTTAGGGTTAG (DNA, 5' {P}, backbone not given here; listed as Homo sapiens) [Oligonucleotide 11mer-1]” returned an SA-β-Gal positive cells in the series on p53DD R2F fibroblasts of 45±4%. The “state of pRb proteins after removal of oligo” value in series [1] (HT-1080, 4 days 40 μM, then fresh medium without oligonucleotide) is given as “sustained in an active, inhibitory state”. In series [1] (HT-1080 cells, 40 μM, 4 days), the “pRb phosphorylation on serine 780, serine 795 and serine 807/811” value was “striking and selective reduction”.

For the origin of these results see patent US20060269924A1, “Modulation of telomere-initiated cell signaling” (TRUSTEES OF BOSTON UNIVERSITY, priority 2003, published 2006).
